The record followed here is US20200131144A1, “AMINE OR (THIO)AMIDE CONTAINING LXR MODULATORS” (Phenex-FXR GmbH, priority 2017, published 2020).

SMILES strings stand for the structures. Read-outs that look alike come from different tables or passages of the source.

Data set [1] concerns the target T1, GST-LXRβ ligand-binding domain (Homo sapiens, UniProt P55055, INS174Q).
T1 construct: amino acids 156-461; NP009052; made in house; host or cells: E. coli
T1 sequence (P55055 with tags, fused parts or gaps INS174Q limits assumed): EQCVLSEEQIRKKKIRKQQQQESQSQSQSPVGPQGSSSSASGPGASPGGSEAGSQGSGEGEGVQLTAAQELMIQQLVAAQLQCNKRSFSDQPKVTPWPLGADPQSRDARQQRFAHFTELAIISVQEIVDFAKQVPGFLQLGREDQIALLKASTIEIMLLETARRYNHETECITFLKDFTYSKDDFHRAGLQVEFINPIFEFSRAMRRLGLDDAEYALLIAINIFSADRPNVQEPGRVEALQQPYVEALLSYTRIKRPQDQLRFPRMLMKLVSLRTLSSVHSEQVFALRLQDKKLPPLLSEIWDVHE
In words: TR-FRETβ activity assay (NCoA3 coactivator peptide recruitment). In kind it is biochemical. Particulars: 1 μM 24(S)-25-epoxycholesterol as prestimulating agonist; inverse agonist unless *. In outline: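 Coactivator recruitment read as TR-FRET (ex 340, em 615 and 665 nm) after 1 h equilibration at 4° C, in triplicate. Mix held 76 nM GST-tagged LXRβ LBD (aa 156-461, E. coli), 400 nM biotin-NCoA3 peptide, Tb-cryptate anti-GST, streptavidin-XL665, 240 mM KCl buffer.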

Data set [2] is described as follows: Short term HFD mouse model: liver and plasma exposure after multiple oral dosing. Particulars: C57BL/6J, HFD mice, 4 h after final dose; for Kp at 4 h: liver/plasma, read-out: liver/plasma ratio, 4 h. In kind it is in vivo, mice (C57BL/6J). The source says:
Short Term HFD Mouse Model:
For this, C57BL/6J were purchased from Elevage Janvier (Rennes, France) at the age of 8 weeks. After an acclimation period of two weeks, animals were prefed on a high fat diet (HFD) (Ssniff Spezialdiäten GmbH, Germany, Surwit EF D12330 mod, Cat. No. E15771-34), with 60 kcal % from fat plus 1% (w/w) extra cholesterol (Sigma-Aldrich, St. Louis, Mo.) for 5 days. Animals were maintained on this diet during treatment with LXR modulators. The test compounds were formulated in 0.5% hydroxypropylmethylcellulose (HPMC) and administered in three doses (from 1.5 to 20 mg/kg each) by oral gavage according to the following schedule: on day one, animals received treatment in the morning and the evening (ca. 17:00), on day two animals received the final treatment in the morning after a 4 h fast and were sacrificed 4 h thereafter. Animal work was conducted according to the national guidelines for animal care in Germany.
Multiple oral dosing of compounds from the present invention in mice lead to a high liver exposure with a favourable liver to plasma ratio. […] These genes are related to hepatic de-novo lipogenesis. A suppression of these genes will reduce liver fat (liver triglycerides).

Where [3] appears, read: liver, three oral doses of 10 mg/kg each, read-out: liver exposure, 4 h.
The mark [4] stands for this setting: three oral doses of 10 mg/kg each.
[5] abbreviates: plasma, three oral doses of 10 mg/kg each, read-out: plasma exposure, 4 h.
[6] abbreviates: liver, three oral doses of 1.5 mg/kg each, read-out: liver exposure, 4 h.
[7] abbreviates: liver, three oral doses of 20 mg/kg each, read-out: liver exposure, 4 h.
[8] abbreviates: three oral doses of 1.5 mg/kg each.
Setting [9] is: three oral doses of 20 mg/kg each.
The mark [10] stands for this setting: plasma, three oral doses of 1.5 mg/kg each, read-out: plasma exposure, 4 h.
Where [11] appears, read: plasma, three oral doses of 20 mg/kg each, read-out: plasma exposure, 4 h.

For the compound `Cc1ccc2ccccc2c1C(=O)N(Cc1ccc(-c2cccc([C@@H](C)C(=O)O)c2)cc1)Cc1ccc(C(F)(F)F)o1` [10/5], in data set [1], the EC50 was below 100 nM. Also, the concentration at 4 h in data set [2] (setting [3]) stood at 24.9 µM; in data set [2] (setting [5]), 3.16 µM. For the same compound, the Kp at 4 h in data set [2] (setting [4]) is 7.9.
Consider `CCOC(=O)c1ccc(CN(Cc2ccc(-c3cccc(C(C)(C)C(=O)O)c3)cc2)C(=O)c2c(C)ccc3ccccc23)o1` [27/28], for which the EC50 in data set [1] is below 100 nM. In addition, the concentration at 4 h in data set [2] (setting [6]) came to 4.3 µM; in data set [2] (setting [7]), 13.8 µM; in data set [2] (setting [10]) it was 0.007 µM; in data set [2] (setting [11]), 0.008 µM. Further, the Kp at 4 h in data set [2] (setting [8]) worked out at 600; in data set [2] (setting [9]), 1790.
`COc1cc(-c2cccc(C(C)(C)C(=O)O)c2)ccc1CN(Cc1ccc(C(F)(F)F)o1)C(=O)c1c(C)ccc2ccccc12` [27/66] displayed an EC50 in data set [1] of 100 to 1000 nM. Further, the concentration at 4 h in data set [2] (setting [3]) was found to be 75.3 µM; in data set [2] (setting [5]) it was 0.399 µM. Also, in data set [2] (setting [4]), the Kp at 4 h came out at 189.
For the compound `Cc1ccc2ccccc2c1C(=O)N(Cc1ccc(-c2cccc(C(C)(C)C(=O)O)c2)cc1)Cc1ccc(C(F)F)o1` [27/36], the EC50 in data set [1] lay within 100 to 1000 nM. For the same compound, the concentration at 4 h in data set [2] (setting [3]) was found to be 80.2 µM; in data set [2] (setting [5]), 3.02 µM. Also, the Kp at 4 h in data set [2] (setting [4]) stood at 26.6.
As to `Cc1ccc2ccccc2c1C(=O)N(Cc1ccc(-c2cccc(C(C)(C)C(=O)O)c2)cc1)Cc1ccc(C(F)(F)F)o1` [27/26], the EC50 in data set [1] was below 100 nM. In addition, the concentration at 4 h came to 6.73 µM in data set [2] (setting [6]), 44.6 µM in data set [2] (setting [7]), 1.04 µM in data set [2] (setting [10]) and 15.3 µM in data set [2] (setting [11]). Moreover, the Kp at 4 h amounted to 6.5 in data set [2] (setting [8]) and 2.9 in data set [2] (setting [9]).
`Cc1ccc2ccccc2c1C(=O)N(Cc1ccc(-c2cc(F)cc(C3(C(=O)O)CC3)c2)cc1)Cc1ccc(C(F)(F)F)o1` [27/76] had an EC50 in data set [1] of 100 to 1000 nM. The concentration at 4 h in data set [2] (setting [3]) stood at 37.9 µM; in data set [2] (setting [5]), 2.31 µM. Besides, the Kp at 4 h in data set [2] (setting [4]) came to 16.4.
For the compound `COc1c(C)nc2ccccc2c1C(=O)N(Cc1ccc(-c2cccc(C(C)(C)C(=O)O)c2)cc1)Cc1ccc(C(F)(F)F)o1` [27/81], the EC50 in data set [1] lay within 100 to 1000 nM. Further, the concentration at 4 h was found to be 43.2 µM in data set [2] (setting [3]) and 0.849 µM in data set [2] (setting [5]). Also, the Kp at 4 h in data set [2] (setting [4]) stood at 50.8.
`COc1ccc2c(c1CN(Cc1ccc(-c3cccc(C(C)(C)C(=O)O)c3)cc1)Cc1ccc(C(F)(F)F)o1)CCCC2` [27/17] showed an EC50 in data set [1] of 100 to 1000 nM. The concentration at 4 h stood at 6.8 µM in data set [2] (setting [3]) and 2.92 µM in data set [2] (setting [5]). Also, the Kp at 4 h in data set [2] (setting [4]) came to 2.3.
The compound `Cc1ccc2ccccc2c1C(=O)N(Cc1ccc(C(F)(F)F)o1)Cc1ccc(-c2cccc(C(C)(C)C(=O)O)c2)cc1C#N` [27/7] had an EC50 in data set [1] below 100 nM. For the same compound, the concentration at 4 h in data set [2] (setting [7]) is 14.8 µM; in data set [2] (setting [11]), 0.281 µM. Also, the Kp at 4 h in data set [2] (setting [9]) turned out to be 52.5.
On to `Cc1nc2ccccc2c(C(=O)N(Cc2ccc(-c3cccc(C(C)(C)C(=O)O)c3)cc2)Cc2ccc(C(F)(F)F)o2)c1C` [27/79], for which the EC50 in data set [1] was in the range of 100 to 1000 nM. Besides, the concentration at 4 h in data set [2] (setting [3]) amounted to 36.5 µM; in data set [2] (setting [5]), 0.931 µM. Further, the Kp at 4 h in data set [2] (setting [4]) turned out to be 39.2.
In turn, `CCc1nc2ccccc2c(C(=O)N(Cc2ccc(-c3cccc(C(C)(C)C(=O)O)c3)cc2)Cc2ccc(C(F)(F)F)o2)c1C` [27/43] came in with an EC50 in data set [1] of 1000 to 10000 nM. In addition, the concentration at 4 h was found to be 44.3 µM in data set [2] (setting [7]) and 1.36 µM in data set [2] (setting [11]). In addition, in data set [2] (setting [9]), the Kp at 4 h was determined as 32.5.
The matching figures for `CC(C)(C(=O)O)c1cccc(-c2ccc(CN(Cc3ccc(C(F)(F)F)o3)C(=O)c3c4ccccc4cc4ccccc34)cc2)c1` [27/47]: below 100 nM, 38.4 µM, 1.07 µM and 36.
Take `Cc1ccc2ccccc2c1CN(Cc1ccc(-c2cccc(C(C)(C)C(=O)O)c2)cc1)Cc1ccc(C(F)(F)F)o1` [Example 24, 2-Methyl-2-(4′-((((2-methylnaphthalen-1-yl)methyl)((5-(trifluoromethyl)furan-2-yl)methyl)amino)methyl)-[1,1′-biphenyl]-3-yl)propanoic acid]: the EC50 in data set [1] is below 100 nM. Besides, the concentration at 4 h in data set [2] (liver, three oral doses of 5 mg/kg each, read-out: liver exposure, 4 h) turned out to be 2.6 µM; in data set [2] (setting [7]), 8.93 µM; in data set [2] (plasma, three oral doses of 5 mg/kg each, read-out: plasma exposure, 4 h) it was 0.893 µM; in data set [2] (setting [11]), 3.52 µM. In addition, the Kp at 4 h in data set [2] (three oral doses of 5 mg/kg each) came out at 2.9; in data set [2] (setting [9]), 2.5.
In turn, `Cc1ccc2ccccc2c1C(=O)N(Cc1ccc(C(F)(F)F)o1)Cc1ncc(-c2cccc(C(C)(C)C(=O)O)c2)cc1Cl` [27/78] gave an EC50 in data set [1] below 100 nM. The concentration at 4 h in data set [2] (setting [3]) is 18.4 µM; in data set [2] (setting [5]), 0.3 µM. In data set [2] (setting [4]), the Kp at 4 h stood at 61.3.
The corresponding values for `Cc1nc2cccnc2c(C(=O)N(Cc2ccc(-c3cccc(C(C)(C)C(=O)O)c3)cc2)Cc2ccc(C(F)(F)F)o2)c1C` [27/93] are 100 to 1000 nM, 155 µM, 2.1 µM and 73.7.
As to `Cc1ccc2ccccc2c1C(=O)N(Cc1ccc(-c2cccc(C(C)(O)C(=O)O)c2)cc1)Cc1ccc(C(F)(F)F)o1` (stereo not drawn) [27/10], in data set [1], the EC50 was 100 to 1000 nM. Besides, the concentration at 4 h in data set [2] (liver, three oral doses of 3 mg/kg each, read-out: liver exposure, 4 h) was 9.93 µM; in data set [2] (setting [3]), 43.3 µM; in data set [2] (plasma, three oral doses of 3 mg/kg each, read-out: plasma exposure, 4 h) it was 0.047 µM; in data set [2] (setting [5]) it was 1.44 µM. The figures for the Kp at 4 h in data set [2] (three oral doses of 3 mg/kg each) and in data set [2] (setting [4]) were 211 and 30, respectively.
`Cc1ccc2ccccc2c1C(=O)N(Cc1ccc(-c2cccc(S(=O)(=O)CC(=O)O)c2)cc1)Cc1ccc(C(F)(F)F)o1` [Example 9] showed a concentration giving a half-maximal response (EC50) in data set [1] of 1000 to 10000 nM. Besides, the figures for the concentration at 4 h in data set [2] (setting [7]) and in data set [2] (setting [11]) were 18.2 µM and 0.134 µM, respectively. For the same compound, in data set [2] (setting [9]), the Kp at 4 h turned out to be 135.
The matching figures for `Cc1ccc2ccccc2c1C(=O)N(Cc1ccc(-c2cccc(C(C)(C)C(=O)O)c2)cc1)Cc1ccc(C#N)o1` [27/38]: below 100 nM, 37.5 µM, 2.37 µM and 15.8.
In turn, `Cc1ccc2ccccc2c1C(=O)N(Cc1ccc(-c2cc(F)c(CO)c(S(=O)(=O)CC(=O)O)c2)cc1)Cc1ccc(C(F)(F)F)o1` [22/8] returned an EC50 in data set [1] of 1000 to 10000 nM. Further, the figures for the concentration at 4 h in data set [2] (setting [7]) and in data set [2] (setting [11]) were 2.82 µM and 0.051 µM, respectively. Moreover, the Kp at 4 h in data set [2] (setting [9]) worked out at 55.7.
The compound `Cc1cc(C)c(C(=O)N(Cc2ccc(-c3cccc(C(C)(C)C(=O)O)c3)cc2)Cc2ccc(C(F)(F)F)o2)c(C)c1` [10/1] registered an EC50 in data set [1] of 100 to 1000 nM.
Compound `COc1ccc2c(c1C(=O)N(Cc1ccc(-c3cccc(C(C)(C)C(=O)O)c3)cc1)Cc1ccc(C(F)(F)F)o1)CCCC2` [27/45] displayed an EC50 in data set [1] below 100 nM. Moreover, the concentration at 4 h was 320 µM in data set [2] (setting [3]) and 0.871 µM in data set [2] (setting [5]). In addition, in data set [2] (setting [4]), the Kp at 4 h is 367.
